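Five concentrations, 48 hours, 96-well plates. The concentration for 50% growth inhibition is given as GI50.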 Calls of active or inactive are those of the source. Cut-off read from the data, not from the text of the source: active = GI50 up to about 1.1 µM and inactive = higher.
Experiments:
Assay in all cases: inhibition of tumour cell growth, NCI panel, 48 h
A498 = system: A498
A549 = system: A549
ACHN = system: ACHN
BT-549 = system: BT-549
COLO 205 = system: COLO 205
HOP-62 = system: HOP-62
HT-29 = system: HT-29
Hs-578T = system: Hs-578T
M14 = system: M14
MCF7 = system: MCF7
MDA-MB-231 = system: MDA-MB-231
MOLT-4 = system: MOLT-4
NCI-H23 = system: NCI-H23
NCI-H460 = system: NCI-H460
NCI-H522 = system: NCI-H522
OVCAR-3 = system: OVCAR-3
SF-268 = system: SF-268
SF-295 = system: SF-295
SN12C = system: SN12C

Measured: GI50

COC(=O)C(C)Sc1nc2cc(Cl)ccc2s1 (centres undefined)
inactive: A498 > 100 µM | A549 > 100 µM | ACHN > 100 µM | BT-549 > 100 µM | COLO 205 > 100 µM | HOP-62 > 100 µM | HT-29 > 100 µM | Hs-578T > 100 µM | M14 > 100 µM | MCF7 > 100 µM | MDA-MB-231 > 100 µM | MOLT-4 > 100 µM | NCI-H23 > 100 µM | NCI-H460 > 100 µM | NCI-H522 > 100 µM | OVCAR-3 > 100 µM | SF-268 > 100 µM | SF-295 > 100 µM | SN12C > 100 µM

CN(C)c1ccc(/C=C2\N=C(N/N=C/c3ccccc3)NC2=O)cc1
inactive: A498 > 100 µM | A549 36.7 µM | ACHN > 100 µM | BT-549 > 100 µM | COLO 205 47.1 µM | HOP-62 > 100 µM | HT-29 40.6 µM | Hs-578T 43 µM | M14 89.7 µM | MCF7 56.1 µM | MDA-MB-231 > 100 µM | MOLT-4 26.8 µM | NCI-H23 50.6 µM | NCI-H460 49.9 µM | NCI-H522 32.2 µM | OVCAR-3 > 100 µM | SF-268 66.5 µM | SF-295 69.5 µM | SN12C > 100 µM

Clc1nc2c(-c3cccs3)ncnc2n1Cc1ccccc1
inactive: A498 19.4 µM | A549 32.4 µM | ACHN 2 µM | BT-549 25.8 µM | COLO 205 34.7 µM | HOP-62 47.6 µM | HT-29 39.8 µM | Hs-578T 22.8 µM | M14 66.8 µM | MCF7 6.04 µM | MDA-MB-231 32.2 µM | MOLT-4 37.5 µM | NCI-H23 46.1 µM | NCI-H460 37.9 µM | NCI-H522 19.4 µM | OVCAR-3 23 µM | SF-268 29.6 µM | SF-295 63.5 µM | SN12C 35.8 µM

O=C1NC(O)c2ccccc2O1 (centres undefined)
inactive: A498 > 100 µM | A549 > 100 µM | ACHN > 100 µM | BT-549 > 100 µM | COLO 205 > 100 µM | HOP-62 > 100 µM | HT-29 > 100 µM | Hs-578T > 100 µM | M14 > 100 µM | MCF7 > 100 µM | MDA-MB-231 > 100 µM | MOLT-4 > 100 µM | NCI-H23 > 100 µM | NCI-H460 > 100 µM | NCI-H522 > 100 µM | OVCAR-3 > 100 µM | SF-268 > 100 µM | SF-295 > 100 µM | SN12C > 100 µM

O=[N+]([O-])c1cccc(CSc2nc(O)c3nc[nH]c3n2)c1
inactive: A498 > 100 µM | A549 > 100 µM | ACHN > 100 µM | BT-549 > 100 µM | COLO 205 > 100 µM | HOP-62 > 100 µM | HT-29 > 100 µM | Hs-578T 87.1 µM | M14 > 100 µM | MCF7 > 100 µM | MDA-MB-231 > 100 µM | MOLT-4 > 100 µM | NCI-H23 > 100 µM | NCI-H460 > 100 µM | NCI-H522 76.6 µM | OVCAR-3 > 100 µM | SF-268 > 100 µM | SF-295 > 100 µM | SN12C > 100 µM

CCN(CC)CCC(=O)c1ccc(C)cc1
inactive: A498 16.4 µM | A549 > 100 µM | ACHN 20.6 µM | BT-549 22.4 µM | COLO 205 16.9 µM | HOP-62 > 100 µM | HT-29 20.8 µM | Hs-578T 61.5 µM | M14 19.1 µM | MCF7 4.88 µM | MDA-MB-231 14.9 µM | MOLT-4 18.5 µM | NCI-H23 21.3 µM | NCI-H460 > 100 µM | NCI-H522 13.8 µM | OVCAR-3 17.7 µM | SF-268 > 100 µM | SF-295 > 100 µM | SN12C 36.9 µM
